16 molecules from US11149023B2, “Substituted triazole derivatives and uses thereof” (Bayer Pharma Aktiengesellschaft, priority 2017, dated 2021) can be followed below.

One assay concerns the target human V1a receptor (Homo sapiens (Human), UniProt P37288). Put plainly: Cellular in vitro assay for determining vasopressin receptor activity (V1a, aequorin luminescence). The class given is cell-based. The conditions noted are these: for IC50: CHO cell line transfected with human V1a receptor, [Arg8]-vasopressin at EC50 concentration, read-out: IC50 hV1a; for ratio IC50 hV2/hV1a: selectivity, IC50 hV2 divided by IC50 hV1a. The procedure:
(§1) B-1. Cellular In Vitro Assay for Determining Vasopressin Receptor Activity
(§2) The identification of agonists and antagonists of the V1a and V2 vasopressin receptors from humans, rats and dogs as well as the quantification of the activity of the compounds of the invention is carried out using recombinant cell lines. These cell lines originally derive from a hamster's ovary epithelial cell (Chinese Hamster Ovary, CHO K1, ATCC: American Type Culture Collection, Manassas, Va. 20108, USA). The test cell lines constitutively express the human, rat or dog V1a or V2 receptors. In case of the Gαq-coupled V1a receptors, cells are also stably transfected with a modified form of the calcium-sensitive photoproteins aequorin (human and rat V1a) or obe-lin (dog V1a), which, after reconstitution with the cofactor coelenterazine, emit light when there are increases in free calcium concentrations [Rizzuto R, Simpson A W, Brini M, Pozzan T, Nature 358, 325-327 (1992); Illarionov B A, Bondar V S, Illarionova V A, Vysotski E S, Gene 153 (2), 273-274 (1995)]. The resulting vasopressin receptor cells react to stimulation of the recombinantly expressed Via receptors by intracellular release of calcium ions, which can be quantified by the resulting photoprotein luminescence. The Gs-coupled V2 receptors are stably transfected into cell lines expressing the gene for firefly luciferase under control of a CRE-responsible promoter. Activation of V2 receptors induces the activation of the CRE-responsive promoter via cAMP increase, thereby inducing the expression of firefly luciferase. The light emitted by photoproteins of V1a cell lines as well as the light emitted by firefly luciferase of V2 cell lines corresponds to the activation or inhibition of the respective vasopressin receptor. The bioluminescence of the cell lines is detected using a suitable luminometer [Milligan G, Marshall F, Rees S, Trends in Pharmacological Sciences 17, 235-237 (1996)].
Vasopressin V1a Receptor Cell Lines:
On the day before the assay, the cells are plated out in culture medium (DMEM/F12, 2% FCS, 2 mM glutamine, 10 mM HEPES, 5 μg/ml coelenterazine) in 384-well microtiter plates and kept in a cell incubator (96% humidity, 5% v/v CO2, 37° C.). On the day of the assay, test compounds in various concentrations are placed for 10 minutes in the wells of the microtiter plate before the agonist [Arg^8]-vasopressin at EC50 concentration is added. The resulting light signal is measured immediately in a luminometer.
(§3) Table 1A below lists individual IC50 values for the compounds of the invention (including racemic mixtures as well as separated enantiomers) that were obtained from cell lines transfected with the human Via or V2 receptor: […]

The target of the next assay is human V2 receptor (Homo sapiens (Human), UniProt P30518). Put plainly: Cellular in vitro assay for determining vasopressin receptor activity (V2, CRE-luciferase). The class given is cell-based. The conditions noted are these: CHO cell line transfected with human V2 receptor; [Arg8]-vasopressin at EC50 concentration; read-out: IC50 hV2. The procedure: as §1, §2
Chain of human V2 receptor (P30518 whole entry): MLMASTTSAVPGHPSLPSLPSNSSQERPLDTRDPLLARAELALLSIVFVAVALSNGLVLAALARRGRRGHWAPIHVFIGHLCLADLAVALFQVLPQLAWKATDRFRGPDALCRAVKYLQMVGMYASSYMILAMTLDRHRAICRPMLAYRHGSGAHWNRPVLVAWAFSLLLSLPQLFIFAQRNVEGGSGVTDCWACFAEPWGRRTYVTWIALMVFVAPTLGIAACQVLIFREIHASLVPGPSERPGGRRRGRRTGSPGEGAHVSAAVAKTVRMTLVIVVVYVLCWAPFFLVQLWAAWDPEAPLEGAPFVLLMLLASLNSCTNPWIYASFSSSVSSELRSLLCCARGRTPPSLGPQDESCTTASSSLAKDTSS
Vasopressin V2 Receptor Cell Lines:
On the day before the assay, the cells are plated out in culture medium (DMEM/F12, 2% FCS, 2 mM glutamine, 10 mM HEPES) in 384-well microtiter plates and kept in a cell incubator (96% humidity, 5% v/v CO2, 37° C.). On the day of the assay, test compounds in various concentrations and the agonist [Arg^8]-vasopressin at EC50 concentration are added together to the wells, and plates are incubated for 3 hours in a cell incubator. Upon addition of the cell lysis reagent Triton™ and the substrate luciferin, luminescence of firefly luciferase is measured in a luminometer.
as §3

Chain of human V1a receptor (P37288 whole entry): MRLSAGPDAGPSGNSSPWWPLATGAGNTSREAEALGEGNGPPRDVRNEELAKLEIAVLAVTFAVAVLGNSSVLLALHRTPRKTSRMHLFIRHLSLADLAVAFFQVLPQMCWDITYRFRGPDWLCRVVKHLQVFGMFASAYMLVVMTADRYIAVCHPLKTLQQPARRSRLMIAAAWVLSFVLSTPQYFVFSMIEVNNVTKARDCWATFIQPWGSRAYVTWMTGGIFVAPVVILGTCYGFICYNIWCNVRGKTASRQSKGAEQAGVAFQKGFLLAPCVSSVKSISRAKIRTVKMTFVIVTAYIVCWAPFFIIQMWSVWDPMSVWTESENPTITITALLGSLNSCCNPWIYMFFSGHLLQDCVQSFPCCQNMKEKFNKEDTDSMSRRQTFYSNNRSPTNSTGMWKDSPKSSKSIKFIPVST

Turning to `CS(=O)(=O)NCC(=O)NC(Cn1c(-c2ccc(Cl)cc2)nn(Cc2ncn(-c3ncccc3Cl)n2)c1=O)C(F)(F)F` (racemic) [Example 19, N-{3-[3-(4-Chlorophenyl)-1-{[1-(3-chloropyridin-2-yl)-1H-1,2,4-triazol-3-yl]methyl}-5-oxo-1,5-dihydro-4H-1,2,4-triazol-4-yl]-1,1,1-trifluoropropan-2-yl}-N^2-(methylsulfonyl)glycinamide], at human V1a receptor, the IC50 – broadly, the concentration that gives 50% inhibition – was 2.2 nM and the “ratio IC50 hV2/hV1a” value is on record as 46.1. Besides, the IC50 at human V2 receptor stood at 102 nM.
`CCC(=O)NC(Cn1c(-c2ccc(Cl)cc2)nn(Cc2ncn(-c3ncccc3Cl)n2)c1=O)C(F)(F)F` (racemic) [Example 13, N-{3-[3-(4-Chlorophenyl)-1-{[1-(3-chloropyridin-2-yl)-1H-1,2,4-triazol-3-yl]methyl}-5-oxo-1,5-dihydro-4H-1,2,4-triazol-4-yl]-1,1,1-trifluoropropan-2-yl}propanamide]: the results for the 50% inhibitory concentration (IC50) on human V1a receptor and at human V2 receptor were 6.95 nM and 260 nM, respectively. At human V1a receptor, the “ratio IC50 hV2/hV1a” value was 37.4.
`CC(F)(F)C(=O)NC(Cn1c(-c2ccc(Cl)cc2)nn(Cc2ncn(-c3ncccc3C(F)(F)F)n2)c1=O)C(F)(F)F` (racemic) [Example 60, N-{3-[3-(4-Chlorophenyl)-5-oxo-1-({1-[3-(trifluoromethyl)pyridin-2-yl]-1H-1,2,4-triazol-3-yl}methyl)-1,5-dihydro-4H-1,2,4-triazol-4-yl]-1,1,1-trifluoropropan-2-yl}-2,2-difluoropropanamide]: at human V1a receptor, the IC50 was found to be 18.5 nM and the “ratio IC50 hV2/hV1a” value stood at 83.8. Besides, the half-maximal inhibitory concentration (IC50) on human V2 receptor amounted to 1550 nM.
In the case of `CS(=O)(=O)CC(=O)NC(Cn1c(-c2ccc(Cl)cc2)nn(Cc2ncn(-c3ncccc3Cl)n2)c1=O)C(F)(F)F` (single isomer, unassigned) [Example 46, N-{3-[3-(4-Chlorophenyl)-1-{[1-(3-chloropyridin-2-yl)-1H-1,2,4-triazol-3-yl]methyl}-5-oxo-1,5-dihydro-4H-1,2,4-triazol-4-yl]-1,1,1-trifluoropropan-2-yl}-2-(methylsulfonyl)acetamide], the IC50 on human V1a receptor was determined as 1.35 nM; on human V2 receptor it was 57.8 nM.
Take `O=C(CN1CCOC1=O)NC(Cn1c(-c2ccc(Cl)cc2)nn(Cc2ncn(-c3ncccc3Cl)n2)c1=O)C(F)(F)F` (racemic) [Example 20, N-{3-[3-(4-Chlorophenyl)-1-{[1-(3-chloropyridin-2-yl)-1H-1,2,4-triazol-3-yl]methyl}-5-oxo-1,5-dihydro-4H-1,2,4-triazol-4-yl]-1,1,1-trifluoropropan-2-yl}-2-(2-oxo-1,3-oxazolidin-3-yl)acetamide]: at human V1a receptor, the half-inhibitory concentration (IC50) amounted to 8.9 nM and the “ratio IC50 hV2/hV1a” value amounted to 58.4. The IC50 at human V2 receptor amounted to 520 nM.
Turning to `CC(=O)OC(C)(C)C(=O)NC(Cn1c(-c2ccc(Cl)cc2)nn(Cc2ncn(-c3ncccc3Cl)n2)c1=O)C(F)(F)F` (racemic) [Example 16, 1-({3-[3-(4-Chlorophenyl)-1-{[1-(3-chloropyridin-2-yl)-1H-1,2,4-triazol-3-yl]methyl}-5-oxo-1,5-dihydro-4H-1,2,4-triazol-4-yl]-1,1,1-trifluoropropan-2-yl}amino)-2-methyl-1-oxopropan-2-yl acetate], at human V1a receptor, the IC50 is 5.05 nM and the “ratio IC50 hV2/hV1a” value amounted to 27.7. Further, on human V2 receptor, the IC50 was found to be 140 nM.
On the same counts, the results for `O=C(NC(Cn1c(-c2ccc(Cl)cc2)nn(Cc2ncn(-c3ncccc3Cl)n2)c1=O)C(F)(F)F)c1ccc(Cl)s1` (racemic) [Example 52, 5-Chloro-N-{3-[3-(4-chlorophenyl)-1-{[1-(3-chloropyridin-2-yl)-1H-1,2,4-triazol-3-yl]methyl}-5-oxo-1,5-dihydro-4H-1,2,4-triazol-4-yl]-1,1,1-trifluoropropan-2-yl}thiophene-2-carboxamide] are 2.8 nM, 167.9 and 470 nM.
On the same counts, the results for `O=C(NC(Cn1c(-c2ccc(Cl)cc2)nn(Cc2ncn(-c3ncccc3Cl)n2)c1=O)C(F)(F)F)C1CC1C(F)(F)F` (stereo not drawn) [Example 18, N-{3-[3-(4-Chlorophenyl)-1-{[1-(3-chloropyridin-2-yl)-1H-1,2,4-triazol-3-yl]methyl}-5-oxo-1,5-dihydro-4H-1,2,4-triazol-4-yl]-1,1,1-trifluoropropan-2-yl}-2-(trifluoromethyl)cyclopropanecarboxamide] are 2.5 nM, 13.4 and 33.5 nM.
On the same counts, the results for `O=C1NCC(C(=O)NC(Cn2c(-c3ccc(Cl)cc3)nn(Cc3ncn(-c4ncccc4Cl)n3)c2=O)C(F)(F)F)N1` (stereo not drawn) [Example 2] are 40.5 nM, 59.3 and 2400 nM.
Regarding `O=C(CF)NC(Cn1c(-c2ccc(Cl)cc2)nn(Cc2ncn(-c3ncccc3Cl)n2)c1=O)C(F)(F)F` (racemic) [Example 8], at human V1a receptor, the IC50 was determined as 42.5 nM and the “ratio IC50 hV2/hV1a” value turned out to be 51.8. The IC50 on human V2 receptor came out at 2200 nM.
For `N#CC1(C(=O)NC(Cn2c(-c3ccc(Cl)cc3)nn(Cc3ncn(-c4ncccc4Cl)n3)c2=O)C(F)(F)F)CC1` (racemic) [Example 21], in that order: 5.95 nM, 47.5 and 283 nM.
Regarding `O=C(NC(Cn1c(-c2ccc(Cl)cc2)nn(Cc2ncn(-c3ncccc3Cl)n2)c1=O)C(F)(F)F)C1CS(=O)(=O)C1` (single isomer, unassigned) [Example 39, N-{3-[3-(4-Chlorophenyl)-1-{[1-(3-chloropyridin-2-yl)-1H-1,2,4-triazol-3-yl]methyl}-5-oxo-1,5-dihydro-4H-1,2,4-triazol-4-yl]-1,1,1-trifluoropropan-2-yl}thietane-3-carboxamide 1,1-dioxide], the values for the half-inhibitory concentration (IC50) at human V1a receptor and at human V2 receptor were 0.48 nM and 53.2 nM, respectively.
On the same counts, the results for `CC(C)(C)OC(=O)NC1(C(=O)NC(Cn2c(-c3ccc(Cl)cc3)nn(Cc3ncn(-c4ncccc4Cl)n3)c2=O)C(F)(F)F)CCC1` (stereo not drawn) [Example 28, tert-Butyl [1-({3-[3-(4-chlorophenyl)-1-{[1-(3-chloropyridin-2-yl)-1H-1,2,4-triazol-3-yl]methyl}-5-oxo-1,5-dihydro-4H-1,2,4-triazol-4-yl]-1,1,1-trifluoropropan-2-yl}carbamoyl)cyclobutyl]-carbamate] are 1.85 nM and 22.5 nM.
For the molecule `CC(C)(O)C(=O)NC(Cn1c(-c2ccc(Cl)cc2)nn(Cc2ncn(-c3ncccc3Cl)n2)c1=O)C(F)(F)F` (racemic) [Example 17, N-{3-[3-(4-Chlorophenyl)-1-{[1-(3-chloropyridin-2-yl)-1H-1,2,4-triazol-3-yl]methyl}-5-oxo-1,5-dihydro-4H-1,2,4-triazol-4-yl]-1,1,1-trifluoropropan-2-yl}-2-hydroxy-2-methylpropanamide], the IC50 on human V1a receptor was 9.55 nM; on human V2 receptor it was 280 nM. The “ratio IC50 hV2/hV1a” value at human V1a receptor is 29.3.
In the case of `O=C(NC(Cn1c(-c2ccc(Cl)cc2)nn(Cc2ncn(-c3ncccc3Cl)n2)c1=O)C(F)(F)F)C1CCCN1` (stereo not drawn) [Example 47, N-{3-[3-(4-Chlorophenyl)-1-{[1-(3-chloropyridin-2-yl)-1H-1,2,4-triazol-3-yl]methyl}-5-oxo-1,5-dihydro-4H-1,2,4-triazol-4-yl]-1,1,1-trifluoropropan-2-yl}-prolinamide], the values for the IC50 on human V1a receptor and at human V2 receptor were 1.85 nM and 50 nM, respectively. Also, the “ratio IC50 hV2/hV1a” value at human V1a receptor is 27.0.
On the same counts, the results for `COCC(=O)NC(Cn1c(-c2ccc(Cl)cc2)nn(Cc2ncn(-c3ncccc3C(F)(F)F)n2)c1=O)C(F)(F)F` (racemic) [Example 68, N-{3-[3-(4-Chlorophenyl)-5-oxo-1-({1-[3-(trifluoromethyl)pyridin-2-yl]-1H-1,2,4-triazol-3-yl}methyl)-1,5-dihydro-4H-1,2,4-triazol-4-yl]-1,1,1-trifluoropropan-2-yl}-2-methoxyacetamide] are 6.15 nM, 530 nM and 86.2.
